Reference: publication PMC7156458, “Synthetic biology based construction of biological activity-related library of fungal decalin-containing diterpenoid pyrones” (Nature Communications, 2020)

Molecular target: Aβ42 (Homo sapiens, UniProt P05067)
Assay: Th-T (thioflavin-T) assay of Aβ42 aggregation
Assay type: biochemical
Conditions: for Th-T fluorescence, mean of three wells: compound at 50

Chain of Aβ42 (P05067 672-713): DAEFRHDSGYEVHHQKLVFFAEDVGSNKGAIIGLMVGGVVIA

Question: How did the “Th-T fluorescence, mean of three wells” value (reading M54 of time course) turn out when `C=C1CCC2C(C)(CCC=C(C)C)C(O)CCC2(C)C1Cc1c(OC)oc(CO)c(C(=O)OC)c1=O` (stereo not drawn) [Compound 13] was run?
Answer: Its value is 0.4653.

Question: What about the “Th-T fluorescence, mean of three wells” value (reading M55 of time course) of the same compound?
Answer: The value was 0.4661.

Question: What about the “Th-T fluorescence, mean of three wells” value (reading M56 of time course) of the same compound?
Answer: The value was 0.4654.

Question: And the “Th-T fluorescence, mean of three wells” value (reading M57 of time course)?
Answer: Its value is 0.4695.

Question: And the “Th-T fluorescence, mean of three wells” value (reading M58 of time course)?
Answer: Its value is 0.4698.

Question: What about the “Th-T fluorescence, mean of three wells” value (reading M59 of time course) of the same compound?
Answer: Its value is 0.4665.

Question: What about the “Th-T fluorescence, mean of three wells” value (reading M60 of time course) of the same compound?
Answer: The value was 0.4689.

Question: What about the “Th-T fluorescence, mean of three wells” value (reading M61 of time course) of the same compound?
Answer: The value was 0.471.

Question: What about the “Th-T fluorescence, mean of three wells” value (reading M62 of time course) of the same compound?
Answer: Its value is 0.4707.

Question: What about the “Th-T fluorescence of Aβ42 with compound, mean of three wells (Fig. 7a source data)” value (“Th-T fluorescence of Aβ42 with compound” below) (concentration 10, unit not given, time-course reading M129) of the same compound?
Answer: The value was 1.537.

Question: What about the “Th-T fluorescence of Aβ42 with compound” value (concentration 10, unit not given, time-course reading M130) of the same compound?
Answer: Its value is 1.546.

Question: What about the “Th-T fluorescence of Aβ42 with compound” value (concentration 10, unit not given, time-course reading M131) of the same compound?
Answer: Its value is 1.547.

Question: What about the “Th-T fluorescence of Aβ42 with compound” value (concentration 10, unit not given, time-course reading M132) of the same compound?
Answer: Its value is 1.542.

Question: And the “Th-T fluorescence of Aβ42 with compound” value (concentration 10, unit not given, time-course reading M133)?
Answer: The value was 1.541.

Question: And the “Th-T fluorescence of Aβ42 with compound” value (concentration 10, unit not given, time-course reading M134)?
Answer: Its value is 1.54.

Question: What about the “Th-T fluorescence of Aβ42 with compound” value (concentration 10, unit not given, time-course reading M135) of the same compound?
Answer: Its value is 1.5371.

Question: What about the “Th-T fluorescence of Aβ42 with compound” value (concentration 10, unit not given, time-course reading M136) of the same compound?
Answer: Its value is 1.543.

Question: What about the “Th-T fluorescence of Aβ42 with compound” value (concentration 10, unit not given, time-course reading M137) of the same compound?
Answer: Its value is 1.53.

Question: What about the “Th-T fluorescence of Aβ42 with compound” value (concentration 10, unit not given, time-course reading M138) of the same compound?
Answer: The value was 1.542.

Question: What about the “Th-T fluorescence of Aβ42 with compound” value (concentration 10, unit not given, time-course reading M139) of the same compound?
Answer: Its value is 1.54.

Question: And the “Th-T fluorescence of Aβ42 with compound” value (concentration 10, unit not given, time-course reading M140)?
Answer: Its value is 1.544.

Question: What about the “Th-T fluorescence of Aβ42 with compound” value (concentration 10, unit not given, time-course reading M141) of the same compound?
Answer: Its value is 1.531.

Question: What about the “Th-T fluorescence of Aβ42 with compound” value (concentration 10, unit not given, time-course reading M142) of the same compound?
Answer: The value was 1.539.

Question: And the “Th-T fluorescence of Aβ42 with compound” value (concentration 10, unit not given, time-course reading M143)?
Answer: Its value is 1.544.

Question: And the “Th-T fluorescence of Aβ42 with compound” value (concentration 10, unit not given, time-course reading M144)?
Answer: The value was 1.537.

Question: What about the “Th-T fluorescence of Aβ42 with compound” value (concentration 10, unit not given, time-course reading M145) of the same compound?
Answer: The value was 1.534.

Question: And the “Th-T fluorescence of Aβ42 with compound” value (concentration 20, unit not given, time-course reading M129)?
Answer: The value was 1.025.

Question: And the “Th-T fluorescence of Aβ42 with compound” value (concentration 20, unit not given, time-course reading M130)?
Answer: The value was 1.025.

Question: And the “Th-T fluorescence of Aβ42 with compound” value (concentration 20, unit not given, time-course reading M131)?
Answer: Its value is 1.024.

Question: And the “Th-T fluorescence of Aβ42 with compound” value (concentration 20, unit not given, time-course reading M132)?
Answer: Its value is 1.024.

Question: And the “Th-T fluorescence of Aβ42 with compound” value (concentration 20, unit not given, time-course reading M133)?
Answer: Its value is 1.026.

Question: And the “Th-T fluorescence of Aβ42 with compound” value (concentration 20, unit not given, time-course reading M134)?
Answer: The value was 1.029.

Question: What about the “Th-T fluorescence of Aβ42 with compound” value (concentration 20, unit not given, time-course reading M135) of the same compound?
Answer: The value was 1.025.

Question: And the “Th-T fluorescence of Aβ42 with compound” value (concentration 20, unit not given, time-course reading M136)?
Answer: Its value is 1.027.

Question: And the “Th-T fluorescence of Aβ42 with compound” value (concentration 20, unit not given, time-course reading M137)?
Answer: The value was 1.027.

Question: What about the “Th-T fluorescence of Aβ42 with compound” value (concentration 20, unit not given, time-course reading M138) of the same compound?
Answer: The value was 1.029.

Question: What about the “Th-T fluorescence of Aβ42 with compound” value (concentration 20, unit not given, time-course reading M139) of the same compound?
Answer: The value was 1.029.

Question: And the “Th-T fluorescence of Aβ42 with compound” value (concentration 20, unit not given, time-course reading M140)?
Answer: Its value is 1.019.

Question: What about the “Th-T fluorescence of Aβ42 with compound” value (concentration 20, unit not given, time-course reading M141) of the same compound?
Answer: The value was 1.021.

Question: And the “Th-T fluorescence of Aβ42 with compound” value (concentration 20, unit not given, time-course reading M142)?
Answer: The value was 1.024.

Question: What about the “Th-T fluorescence of Aβ42 with compound” value (concentration 20, unit not given, time-course reading M143) of the same compound?
Answer: Its value is 1.022.

Question: And the “Th-T fluorescence of Aβ42 with compound” value (concentration 20, unit not given, time-course reading M144)?
Answer: Its value is 1.02.

Question: What about the “Th-T fluorescence of Aβ42 with compound” value (concentration 20, unit not given, time-course reading M145) of the same compound?
Answer: Its value is 1.019.

Question: And the “Th-T fluorescence of Aβ42 with compound” value (concentration 50, unit not given, time-course reading M129)?
Answer: Its value is 0.475.

Question: What about the “Th-T fluorescence of Aβ42 with compound” value (concentration 50, unit not given, time-course reading M130) of the same compound?
Answer: Its value is 0.4748.

Question: What about the “Th-T fluorescence of Aβ42 with compound” value (concentration 50, unit not given, time-course reading M131) of the same compound?
Answer: Its value is 0.479.

Question: What about the “Th-T fluorescence of Aβ42 with compound” value (concentration 50, unit not given, time-course reading M132) of the same compound?
Answer: The value was 0.4776.

Question: What about the “Th-T fluorescence of Aβ42 with compound” value (concentration 50, unit not given, time-course reading M133) of the same compound?
Answer: Its value is 0.4741.

Question: What about the “Th-T fluorescence of Aβ42 with compound” value (concentration 50, unit not given, time-course reading M134) of the same compound?
Answer: Its value is 0.4743.

Question: What about the “Th-T fluorescence of Aβ42 with compound” value (concentration 50, unit not given, time-course reading M135) of the same compound?
Answer: Its value is 0.479.

Question: What about the “Th-T fluorescence of Aβ42 with compound” value (concentration 50, unit not given, time-course reading M136) of the same compound?
Answer: Its value is 0.4773.

Question: And the “Th-T fluorescence of Aβ42 with compound” value (concentration 50, unit not given, time-course reading M137)?
Answer: Its value is 0.4745.

Question: And the “Th-T fluorescence of Aβ42 with compound” value (concentration 50, unit not given, time-course reading M138)?
Answer: Its value is 0.4775.

Question: And the “Th-T fluorescence of Aβ42 with compound” value (concentration 50, unit not given, time-course reading M139)?
Answer: Its value is 0.4782.

Question: What about the “Th-T fluorescence of Aβ42 with compound” value (concentration 50, unit not given, time-course reading M140) of the same compound?
Answer: Its value is 0.4767.

Question: And the “Th-T fluorescence of Aβ42 with compound” value (concentration 50, unit not given, time-course reading M141)?
Answer: Its value is 0.4755.

Question: What about the “Th-T fluorescence of Aβ42 with compound” value (concentration 50, unit not given, time-course reading M142) of the same compound?
Answer: The value was 0.4776.
